Assay results taken from PubChem BioAssay (NCI).
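At the GI50, growth is halved. The concentration for full growth arrest is given as TGI.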

Assays:
Assay in all cases: NCI tumour cell line growth inhibition, 384-well format
SK-MEL-28 melanoma = tested on: SK-MEL-28 melanoma
IGROV1 ovarian = tested on: IGROV1 ovarian
SK-MEL-5 melanoma = tested on: SK-MEL-5 melanoma
RPMI-8226 leukemia = tested on: RPMI-8226 leukemia
SK-OV-3 ovarian = tested on: SK-OV-3 ovarian
ACHN renal = tested on: ACHN renal
K-562 leukemia = tested on: K-562 leukemia
DU-145 prostate = tested on: DU-145 prostate
RXF 393 renal = tested on: RXF 393 renal
SN12C renal = tested on: SN12C renal
MDA-MB-435 melanoma = tested on: MDA-MB-435 melanoma
SF-268 CNS = tested on: SF-268 CNS
OVCAR-3 ovarian = tested on: OVCAR-3 ovarian
EKVX NSCLC = tested on: EKVX NSCLC
SW-620 colon = tested on: SW-620 colon
BT-549 breast = tested on: BT-549 breast
OVCAR-5 ovarian = tested on: OVCAR-5 ovarian
CCRF-CEM leukemia = tested on: CCRF-CEM leukemia
SNB-19 CNS = tested on: SNB-19 CNS
TK-10 renal = tested on: TK-10 renal
SNB-75 CNS = tested on: SNB-75 CNS
COLO 205 colon = tested on: COLO 205 colon
MALME-3M melanoma = tested on: MALME-3M melanoma
NCI-H522 lung = tested on: NCI-H522 lung
786-0 renal = tested on: 786-0 renal
M14 melanoma = tested on: M14 melanoma
SF-295 CNS = tested on: SF-295 CNS
NCI-H322M lung = tested on: NCI-H322M lung
HOP-92 NSCLC = tested on: HOP-92 NSCLC
MOLT-4 leukemia = tested on: MOLT-4 leukemia
UO-31 renal = tested on: UO-31 renal
NCI/ADR-RES ovarian = tested on: NCI/ADR-RES ovarian
SF-539 CNS = tested on: SF-539 CNS
NCI-H226 lung = tested on: NCI-H226 lung
KM12 colon = tested on: KM12 colon
LOX IMVI melanoma = tested on: LOX IMVI melanoma
U251 glioblastoma = tested on: U251 glioblastoma
MDA-MB-468 breast = tested on: MDA-MB-468 breast
CAKI-1 renal = tested on: CAKI-1 renal
OVCAR-4 ovarian = tested on: OVCAR-4 ovarian
HCC-2998 colon = tested on: HCC-2998 colon
UACC-62 melanoma = tested on: UACC-62 melanoma
HOP-62 NSCLC = tested on: HOP-62 NSCLC
HCT-15 colon = tested on: HCT-15 colon
PC-3 prostate = tested on: PC-3 prostate
UACC-257 melanoma = tested on: UACC-257 melanoma
MDA-MB-231 breast = tested on: MDA-MB-231 breast
NCI-H460 NSCLC = tested on: NCI-H460 NSCLC
NCI-H23 lung = tested on: NCI-H23 lung
HS 578T breast = tested on: HS 578T breast
A498 renal = tested on: A498 renal
MCF7 breast = tested on: MCF7 breast
HL-60(TB) leukemia = tested on: HL-60(TB) leukemia
T-47D breast = tested on: T-47D breast
A549 NSCLC = tested on: A549 NSCLC
SR leukemia = tested on: SR leukemia
HT29 colon = tested on: HT29 colon
OVCAR-8 ovarian = tested on: OVCAR-8 ovarian

SMILES: CN(C)c1cc2c(cc1Sc1nc3c(N)nccc3n1CCNCC(C)(C)C)OCO2
- GI50 (SK-MEL-28 melanoma): 0.327 µM
- TGI (SK-MEL-28 melanoma): 11.9 µM
- GI50 (IGROV1 ovarian): 0.27 µM
- TGI (IGROV1 ovarian): 0.742 µM
- GI50 (SK-MEL-5 melanoma): 0.0798 µM
- TGI (SK-MEL-5 melanoma): 1.45 µM
- GI50 (RPMI-8226 leukemia): 0.135 µM
- TGI (RPMI-8226 leukemia): 0.291 µM
- GI50 (SK-OV-3 ovarian): 0.231 µM
- TGI (SK-OV-3 ovarian): 10.8 µM
- GI50 (ACHN renal): 0.376 µM
- TGI (ACHN renal): 13.2 µM
- GI50 (K-562 leukemia): 0.199 µM
- TGI (K-562 leukemia): 0.737 µM
- GI50 (DU-145 prostate): 0.228 µM
- TGI (DU-145 prostate): 1.13 µM
- GI50 (RXF 393 renal): 0.127 µM
- TGI (RXF 393 renal): 0.348 µM
- GI50 (SN12C renal): 0.221 µM
- TGI (SN12C renal): 0.506 µM
- GI50 (MDA-MB-435 melanoma): 0.447 µM
- TGI (MDA-MB-435 melanoma): 15.3 µM
- GI50 (SF-268 CNS): 0.221 µM
- TGI (SF-268 CNS): 11.1 µM
- GI50 (OVCAR-3 ovarian): 0.234 µM
- TGI (OVCAR-3 ovarian): 0.631 µM
- GI50 (EKVX NSCLC): 0.344 µM
- TGI (EKVX NSCLC): 11.8 µM
- GI50 (SW-620 colon): 0.215 µM
- TGI (SW-620 colon): 0.715 µM
- GI50 (BT-549 breast): 0.118 µM
- TGI (BT-549 breast): 0.664 µM
- GI50 (OVCAR-5 ovarian): 0.39 µM
- TGI (OVCAR-5 ovarian): 9.75 µM
- GI50 (CCRF-CEM leukemia): 0.118 µM
- TGI (CCRF-CEM leukemia): 0.312 µM
- GI50 (SNB-19 CNS): 0.423 µM
- TGI (SNB-19 CNS): 6.84 µM
- GI50 (TK-10 renal): 0.4 µM
- TGI (TK-10 renal): 5.55 µM
- GI50 (SNB-75 CNS): 0.273 µM
- TGI (SNB-75 CNS): 0.553 µM
- GI50 (COLO 205 colon): 0.0664 µM
- TGI (COLO 205 colon): 0.325 µM
- GI50 (MALME-3M melanoma): 0.241 µM
- TGI (MALME-3M melanoma): 0.548 µM
- GI50 (NCI-H522 lung): 0.191 µM
- TGI (NCI-H522 lung): 0.377 µM
- GI50 ([…]-0 renal): 0.28 µM
- TGI (786-0 renal): 0.963 µM
- GI50 (M14 melanoma): 0.303 µM
- TGI (M14 melanoma): 3.44 µM
- GI50 (SF-295 CNS): 0.218 µM
- TGI (SF-295 CNS): 0.499 µM
- GI50 (NCI-H322M lung): 0.299 µM
- TGI (NCI-H322M lung): 14.8 µM
- GI50 (HOP-92 NSCLC): 0.183 µM
- TGI (HOP-92 NSCLC): 0.503 µM
- GI50 (MOLT-4 leukemia): 0.0589 µM
- TGI (MOLT-4 leukemia): 0.192 µM
- GI50 (UO-31 renal): 0.683 µM
- TGI (UO-31 renal): 19.5 µM
- GI50 (NCI/ADR-RES ovarian): 0.28 µM
- TGI (NCI/ADR-RES ovarian): 0.625 µM
- GI50 (SF-539 CNS): 0.236 µM
- TGI (SF-539 CNS): 0.541 µM
- GI50 (NCI-H226 lung): 0.387 µM
- TGI (NCI-H226 lung): 13.2 µM
- GI50 (KM12 colon): 0.171 µM
- TGI (KM12 colon): 6.35 µM
- GI50 (LOX IMVI melanoma): 0.177 µM
- TGI (LOX IMVI melanoma): 0.33 µM
- GI50 (U251 glioblastoma): 0.352 µM
- TGI (U251 glioblastoma): 1.42 µM
- GI50 (MDA-MB-468 breast): 0.307 µM
- TGI (MDA-MB-468 breast): 0.507 µM
- GI50 (CAKI-1 renal): 0.449 µM
- TGI (CAKI-1 renal): 15.8 µM
- GI50 (OVCAR-4 ovarian): 0.324 µM
- TGI (OVCAR-4 ovarian): 0.883 µM
- GI50 (HCC-2998 colon): 0.183 µM
- TGI (HCC-2998 colon): 0.419 µM
- GI50 (UACC-62 melanoma): 0.226 µM
- TGI (UACC-62 melanoma): 0.59 µM
- GI50 (HOP-62 NSCLC): 0.292 µM
- TGI (HOP-62 NSCLC): 0.934 µM
- GI50 (HCT-15 colon): 0.144 µM
- TGI (HCT-15 colon): 8.64 µM
- GI50 (PC-3 prostate): 0.229 µM
- TGI (PC-3 prostate): 0.517 µM
- GI50 (UACC-257 melanoma): 0.507 µM
- TGI (UACC-257 melanoma): 4.14 µM
- GI50 (MDA-MB-231 breast): 0.231 µM
- TGI (MDA-MB-231 breast): 0.608 µM
- GI50 (NCI-H460 NSCLC): 0.138 µM
- TGI (NCI-H460 NSCLC): 0.297 µM
- GI50 (NCI-H23 lung): 0.134 µM
- TGI (NCI-H23 lung): 0.467 µM
- GI50 (HS 578T breast): 0.261 µM
- TGI (HS 578T breast): 0.769 µM
- GI50 (A498 renal): 0.0829 µM
- TGI (A498 renal): 11.9 µM
- GI50 (MCF7 breast): 0.0895 µM
- TGI (MCF7 breast): 1.68 µM
- GI50 (HL-60(TB) leukemia): 0.111 µM
- TGI (HL-60(TB) leukemia): 0.241 µM
- GI50 (T-47D breast): 0.35 µM
- TGI (T-47D breast): 10.5 µM
- GI50 (A549 NSCLC): 0.131 µM
- TGI (A549 NSCLC): 12.1 µM
- GI50 (SR leukemia): 0.0628 µM
- TGI (SR leukemia): 0.197 µM
- GI50 (HT29 colon): 0.188 µM
- TGI (HT29 colon): 2.26 µM
- GI50 (OVCAR-8 ovarian): 0.174 µM
- TGI (OVCAR-8 ovarian): 0.349 µM
